Measurements reported in patent publication US9174996B2, “Protein kinase inhibitors” (Astar Biotech LLC, priority 2012, dated 2015).

Legend:
[1] = biological target: Ba/F3 cells expressing BCR-ABL T315I (Homo sapiens, UniProt P00519, T315I, cells depend on it); experiment: MTT cell viability assay, Experiment 3; format: cell-based, murine; details: Mean ± S.E.M, two independent experiments, read-out: IC50 cell viability, Ba/F3 cells T315I BCR-ABL
Text: (§1) This study evaluated the effect of the pure optical isomers on human leukemia cell viability in vitro. […] Two BCR-ABL-positive human leukemia cell lines, K562 and KU812, were used in this study. Besides, Ba/F3 cell transfectants expressing native or T315I BCR-ABL, whose viability is dependent on ectopically expressed BCR-ABL, were also used in this work. Ba/F3 cells expressing BCR-ABL^T315I were used for testing the efficiency of tested compounds on point mutation BCR-ABL^T315I, which cause drug resistance to Imatinib (Gleevec). U937 and JURKAT, two BCR-ABL-negative human leukemia cell lines, were employed to test the selectivity of tested compounds.
(§2) Cells were seeded in 24-well plates, and treated with drugs at corresponding concentrations. Cell viability was measured using a MTT (3-(4,5-dimethylthiazol-2-yl)-2,5-diphenyltetrazolium bromide)-based colorimetric assay with a 96-well plate reader. IC50 values were calculated using the mean of two independent experiments.

[2] = biological target: Ba/F3 cells expressing native BCR-ABL (Homo sapiens, UniProt P00519); experiment: MTT cell viability assay, Experiment 3; format: cell-based, murine; details: Mean ± S.E.M, two independent experiments, read-out: IC50 cell viability, Ba/F3 cells Native BCR-ABL
Text: as §1, §2

[3] = tested on: JURKAT; experiment: MTT cell viability assay, Experiment 3; format: cell-based; details: Homo sapiens, MTT, Mean ± S.E.M, two independent experiments, read-out: IC50 cell viability, Non-CML leukemia cells JURKAT
Text: (§3) This study evaluated the effect of the pure optical isomers on human leukemia cell viability in vitro. Ponatinib was used as the positive control. Two BCR-ABL-positive human leukemia cell lines, K562 and KU812, were used in this study. Besides, Ba/F3 cell transfectants expressing native or T315I BCR-ABL, whose viability is dependent on ectopically expressed BCR-ABL, were also used in this work. Ba/F3 cells expressing BCR-ABL^T315I were used for testing the efficiency of tested compounds on point mutation BCR-ABL^T315I, which cause drug resistance to Imatinib (Gleevec). U937 and JURKAT, two BCR-ABL-negative human leukemia cell lines, were employed to test the selectivity of tested compounds.
as §2

[4] = tested on: K562; experiment: MTT cell viability assay, Experiment 3; format: cell-based; details: Homo sapiens, K562; MTT, Mean ± S.E.M, two independent experiments; read-out: IC50 cell viability, CML leukemia cells K562
Text: as §3, §2

[5] = tested on: KU812; experiment: MTT cell viability assay, Experiment 3; format: cell-based; details: Homo sapiens, KU812; MTT, Mean ± S.E.M, two independent experiments; read-out: IC50 cell viability, CML leukemia cells KU812
Text: as §3, §2

[6] = tested on: U937; experiment: MTT cell viability assay, Experiment 3; format: cell-based; details: Homo sapiens, U-937; MTT, Mean ± S.E.M, two independent experiments; read-out: IC50 cell viability, Non-CML leukemia cells U937
Text: as §3, §2

[7] = tested on: K562 cells; experiment: Cell death assay, Experiment 1 (live cells counted by trypan blue); format: cell-based; details: Homo sapiens, 100 nM, 48 hours, read-out: % live cells (vs control)
[8] = tested on: K562 cells; experiment: Cell death assay, Experiment 2 (IC50, live cells counted by trypan blue); format: cell-based; details: Homo sapiens, 48 h
Method: K562 cells (2×10^5 cells/ml) were seeded in 24-well cell culture plate and treated with DMSO or agents. After treatment in the presence of DMSO or agents for 48 h, cells were collected by centrifuging at 500 g for 5 minutes, and then cells were resuspended in appropriate volume of PBS. 10 uL of cell suspension was mixed with 10 uL of trypan blue solution and live cells were counted by TC10 (Bio-Rad, Richmond, Calif.).

Work on `CN1CCN(C2CC(F)(F)c3cc(NC(=O)c4ccc(Cl)c(C#Cc5cnc6cccnn56)c4)ccc32)CC1` (racemic) [Compound 38, N-(1,1-difluoro-2,3-dihydro-3-(4-methylpiperazin-1-yl)-1H-indan-6-yl)-3-(2-(imidazo[1,2-b]pyridazin-3-yl)ethynyl)-4-chlorobenzamide] yielded a GI50 [1] of 10.1 ± 0.7 nM, a GI50 [2] of 4.9 ± 2.1 nM and an IC50 [3] greater than 1000 nM. It also gave an IC50 [4] of 0.8 ± 0.1 nM, an IC50 [5] of 0.4 ± 0.1 nM and an IC50 [6] greater than 1000 nM. The melting point was 140 to 142 °C.

`Cc1ccc(C(=O)Nc2ccc(CN3CCN(C)CC3)c(C(F)(F)F)c2)cc1C#Cc1ccc(NC2CC2)nn1` [Compound 12, 3-(2-(6-(Cyclopropylamino)pyridazin-3-yl)ethynyl)-4-methyl-N-(4-((4-methylpiperazin-1-yl)methyl)-3-(trifluoromethyl)phenyl)benzamide] showed a viability at 0.1 µM [7] of 10.1%, an IC50 [8] of 4 nM and a melting point of 68 to 69 °C.

In the case of `CN1CCN(C2CC(F)(F)c3cc(NC(=O)c4ccc(F)c(C#Cc5cnc6cccnn56)c4)ccc32)CC1` (racemic) [Compound 39, N-(1,1-difluoro-2,3-dihydro-3-(4-methylpiperazin-1-yl)-1H-indan-6-yl)-3-(2-(imidazo[1,2-b]pyridazin-3-yl)ethynyl)-4-fluorobenzamide], the GI50 [1] is reported as 13 ± 0.9 nM, the GI50 [2] is reported as 3.6 ± 0.7 nM and the IC50 [3] is reported as greater than 1000 nM. It also gave an IC50 [4] of 0.8 ± 0.2 nM, an IC50 [5] of 0.5 ± 0.3 nM and an IC50 [6] of 810 ± 39.2 nM. It also gave a melting point of 118 to 121 °C.

Molecule `Cc1cn(-c2cc(NC(=O)c3ccc(C)c(C#Cc4ccc(NC5CC5)nn4)c3)cc(C(F)(F)F)c2)cn1` [Compound 23, 3-(2-(6-(Cyclopropylamino)pyridazin-3-yl)ethynyl)-4-methyl-N-(3-(4-methyl-1H-imidazol-1-yl)-5-(trifluoromethyl)phenyl)benzamide] has a viability at 0.1 µM [7] of 8.6%, an IC50 [8] of 16 nM and a melting point of 226 to 228 °C.

Work on `CN1CCN([C@H]2CC(F)(F)c3cc(NC(=O)c4ccc(F)c(C#Cc5cnc6cccnn56)c4)ccc32)CC1` (single isomer, unassigned) [39-(S)] yielded a GI50 [1] of 6.5 ± 1.2 nM, a GI50 [2] of 2.3 ± 0.5 nM and an IC50 [3] greater than 1000 nM. It also gave an IC50 [4] of 0.3 ± 0.2 nM, an IC50 [5] of 0.2 ± 0.1 nM and an IC50 [6] greater than 1000 nM.

Work on `Cc1ccc(C(=O)Nc2ccc3c(c2)C(F)(F)CC3N2CCN(C)CC2)cc1C#Cc1cnc2cccnn12` (racemic) [Compound 36, N-(1,1-difluoro-2,3-dihydro-3-(4-methylpiperazin-1-yl)-1H-indan-6-yl)-3-(2-(imidazo[1,2-b]pyridazin-3-yl)ethynyl)-4-methylbenzamide] yielded a viability at 0.1 µM [7] of 9.48%, an IC50 [8] of 0.87 nM and a GI50 [1] of 11 ± 0.2 nM. For the same molecule, the GI50 [2] was 2.7 ± 0.2 nM, the IC50 [3] was 672 ± 77.6 nM and the IC50 [4] was 0.5 ± 0.1 nM. The IC50 [5] was 0.2 ± 0.1 nM and the IC50 [6] was 608 ± 42.2 nM.

Molecule `Cc1ccc(-c2nc3ccc(CN4CCN(C)CC4)cc3[nH]2)cc1C#Cc1cnc2cccnn12` [Compound 3, 3-(2-(2-Methyl-5-(6-((4-methylpiperazin-1-yl)methyl)-1H-benzo[d]imidazol-2-yl)phenyl)ethynyl)imidazo[1,2-b]pyridazine] has a viability at 0.1 µM [7] of 11.3%, an IC50 [8] of 3 nM and a melting point of 114 to 115 °C.

`Cc1ccc(C(=O)Nc2ccc3c(c2)C(F)(F)C[C@H]3N2CCN(C)CC2)cc1C#Cc1cnc2cccnn12` [36-(R), (R)—N-(1,1-difluoro-2,3-dihydro-3-(4-methylpiperazin-1-yl)-1H-indan-6-yl)-3-(2-(imidazo[1,2-b]pyridazin-3-yl)ethynyl)-4-methylbenzamide] showed a GI50 [1] greater than 100 nM, a GI50 [2] of 31.2 ± 3.8 nM and an IC50 [3] greater than 1000 nM. The IC50 [4] was 3.6 ± 0.1 nM, the IC50 [5] was 2.7 ± 0.1 nM and the IC50 [6] was greater than 1000 nM.

`Cc1ccc(C(=O)Nc2ccc(CN3CCN(C)CC3)c(C(F)(F)F)c2)cc1C#Cc1ccc(NC2CCC2)nn1` [Compound 13, 3-(2-(6-(Cyclobutylamino)pyridazin-3-yl)ethynyl)-4-methyl-N-(4-((4-methylpiperazin-1-yl)methyl)-3-(trifluoromethyl)phenyl)benzamide] gave a viability at 0.1 µM [7] of 8.9%, an IC50 [8] of 11 nM and a melting point of 120 to 121 °C.

With `Cc1cn(-c2ccc(NC(=O)c3ccc(C)c(C#Cc4cnc5cccnn45)c3)cc2C(F)(F)F)cn1` [Compound 30, 3-(2-(Imidazo[1,2-b]pyridazin-3-yl)ethynyl)-4-methyl-N-(4-(4-methyl-1H-imidazol-1-yl)-3-(trifluoromethyl)-phenyl)benzamide] the viability at 0.1 µM [7] was 12.6%, the IC50 [8] was 3.6 nM and the melting point was 124 to 126 °C.

Molecule `Cc1ccc(C(=O)Nc2ccc3c(c2)C(F)(F)C[C@@H]3N2CCN(C)CC2)cc1C#Cc1cnc(NC2CC2)nc1` [37-(S), (S)-3-(2-(2-(Cyclopropylamino)pyrimidin-5-yl)ethynyl)-N-(1,1-difluoro-2,3-dihydro-3-(4-methylpiperazin-1-yl)-1H-indan-6-yl)-4-methylbenzamide] has a GI50 [1] of 12.4 ± 0.4 nM, a GI50 [2] of 3.5 ± 0.9 nM and an IC50 [3] of 280 ± 20 nM. It also gave an IC50 [4] of 0.6 ± 0.1 nM, an IC50 [5] of 0.2 ± 0.1 nM and an IC50 [6] of 165 ± 15 nM.

For `CN1CCN([C@@H]2CC(F)(F)c3cc(NC(=O)c4ccc(F)c(C#Cc5cnc6cccnn56)c4)ccc32)CC1` (single isomer, unassigned) [39-(R)], the GI50 [1] was greater than 100 nM, the GI50 [2] was 47.6 ± 4.5 nM and the IC50 [3] was greater than 1000 nM. The IC50 [4] was 6.4 ± 1.3 nM, the IC50 [5] was 3.6 ± 0.8 nM and the IC50 [6] was greater than 1000 nM.

With `Cc1ccc(C(=O)Nc2ccc3c(c2)C(F)(F)C[C@H]3N2CCN(C)CC2)cc1C#Cc1cnc(NC2CC2)nc1` [37-(R), (R)-3-(2-(2-(Cyclopropylamino)pyrimidin-5-yl)ethynyl)-N-(1,1-difluoro-2,3-dihydro-3-(4-methylpiperazin-1-yl)-1H-indan-6-yl)-4-methylbenzamide] the GI50 [1] was greater than 100 nM, the GI50 [2] was 62.5 ± 6.9 nM and the IC50 [3] was 400 ± 64.9 nM. The IC50 [4] was 10.4 ± 1.5 nM, the IC50 [5] was 5.2 ± 0.2 nM and the IC50 [6] was 465 ± 9.7 nM.

For `Cc1ccc(C(=O)Nc2ccc3c(c2)C(F)(F)CC3N2CCN(C)CC2)cc1C#Cc1cnc(NC2CC2)nc1` (racemic) [Compound 37, 3-(2-(2-(Cyclopropylamino)pyrimidin-5-yl)ethynyl)-N-(1,1-difluoro-2,3-dihydro-3-(4-methylpiperazin-1-yl)-1H-indan-6-yl)-4-methylbenzamide], the viability at 0.1 µM [7] was 4.32%, the IC50 [8] was 3.4 nM and the GI50 [1] was 40 ± 9.6 nM. For the same molecule, the GI50 [2] was 9.3 ± 2.5 nM, the IC50 [3] was 292 ± 8 nM and the IC50 [4] was 1 ± 0.2 nM. For the same molecule, the IC50 [5] was 0.4 ± 0.1 nM, the IC50 [6] was 191 ± 3.3 nM and the melting point was 95 to 97 °C.

With `CN1CCN([C@@H]2CC(F)(F)c3cc(NC(=O)c4ccc(Cl)c(C#Cc5cnc6cccnn56)c4)ccc32)CC1` (single isomer, unassigned) [38-(R)] the GI50 [1] was greater than 100 nM, the GI50 [2] was 78.2 ± 2.3 nM and the IC50 [3] was greater than 1000 nM. The IC50 [4] was 24.9 ± 9.9 nM, the IC50 [5] was 11.9 ± 0.3 nM and the IC50 [6] was greater than 1000 nM.

For `CN1CCN(Cc2ccc3nc(-c4ccc(Cl)c(C#Cc5cnc6cccnn56)c4)[nH]c3c2)CC1` [Compound 6, 3-(2-(2-Chloro-5-(6-((4-methylpiperazin-1-yl)methyl)-1H-benzo[d]imidazol-2-yl)phenyl)ethynyl)imidazo[1,2-b]pyridazine], the viability at 0.1 µM [7] was 10.1% and the melting point was 156 to 157 °C.

For `Cc1ccc(-c2nc3ccc(CN4CCN(C)CC4)cc3[nH]2)cc1C#Cc1cnc(NC2CC2)nc1` [Compound 5, N-Cyclopropyl-5-(2-(2-methyl-5-(6-((4-methylpiperazin-1-yl)methyl)-1H-benzo[d]imidazol-2-yl)phenyl)ethynyl)pyrimidin-2-amine], the viability at 0.1 µM [7] was 10.8% and the melting point was 136 to 137 °C.
